According to US6653081B2, “Methods for monitoring antiretroviral therapy and guiding therapeutic decision in the treatment of HIV/AIDS” (ViroLogic, Inc., priority 2000, dated 2003):
Entries after “also recorded” stand apart in the source; their conditions may differ.

How the values were obtained:
RTV-011073/241V/277T = assay: Phenotypic susceptibility assay, RTV-011073/241V/277T; type: cell-based, HIV; details: RTV-011073 with 241 and 277 reverted
Description: The resistance test vectors containing a functional luciferase gene cassette were constructed and host cells were transfected with the resistance test vector DNA. The resistant test vectors contained patient-derived reverse transcriptase and protease sequences that were either susceptible or resistant to the antiretroviral agents, such as nucleoside reverse transcriptase inhibitors, (NRTIs) non-nucleoside reverse transcriptase inhibitors […] protease inhibitors. The resistance test vector viral particles produced by transfecting the resistance test vector DNA into host cells, either in the presence or absence of PRIs, were used to infect target host cells grown either in the absence of NRTIs or NNRTIs, or in the presence of increasing concentrations of the drug. The amount of luciferase activity produced in infected target host cells in the presence of varying concentrations of drug was compared to the amount of luciferase produced in infected target host cells in the absence of drug. […] The IC50 values were determined by plotting percent drug inhibition vs. log10 drug concentration. Stimulation of viral replication was measured as the percent increase in luciferase activity detected when infection occurs in the presence of drug as compared to in the absence of drug.
Host cells were seeded in 10-cm-diameter dishes and were transfected several days after plating with resistance test vector plasmid DNA and the envelope expression vector. […] HIV capsid protein (p24) levels in the harvested cell culture media were determined by an EIA method as described by the manufacturer (SAIC; Frederick, Md.). […] The inhibitory effect of the drug was determined using the following equation: […]
where RLUluc [drug] is the Relative Light Unit of luciferase activity in infected cells in the presence of drug, and RLUluc is the Relative Light Unit of luciferase activity in infected cells in the absence of drug. […] The percent luciferase stimulation is the negative of the % inhibition calculated using the formula above. […]

RTV-V241S = assay: Phenotypic susceptibility assay, RTV-V241S; type: cell-based, HIV-1; details: site-directed V241S alone
Description: (§1) The resistance test vectors containing a functional luciferase gene cassette were constructed and host cells were transfected with the resistance test vector DNA. The resistant test vectors contained patient-derived reverse transcriptase and protease sequences that were either susceptible or resistant to the antiretroviral agents, such as nucleoside reverse transcriptase inhibitors, (NRTIs) non-nucleoside reverse transcriptase inhibitors […] protease inhibitors. The resistance test vector viral particles produced by transfecting the resistance test vector DNA into host cells, either in the presence or absence of PRIs, were used to infect target host cells grown either in the absence of NRTIs or NNRTIs, or in the presence of increasing concentrations of the drug. The amount of luciferase activity produced in infected target host cells in the presence of varying concentrations of drug was compared to the amount of luciferase produced in infected target host cells in the absence of drug. “Drug resistance” was measured as the amount of drug required to inhibit by 50% the luciferase activity detected in the absence of drug (inhibitory concentration 50%, IC50). The IC50 values were determined by plotting percent drug inhibition vs. log10 drug concentration. Stimulation of viral replication was measured as the percent increase in luciferase activity detected when infection occurs in the presence of drug as compared to in the absence of drug.
(§2) Host cells were seeded in 10-cm-diameter dishes and were transfected several days after plating with resistance test vector plasmid DNA and the envelope expression vector. Transfections were performed using a calcium-phosphate precipitation procedure. The cell culture media containing the DNA precipitate was replaced with fresh medium, from one to 24 hours, after transfection. Cell culture media containing resistance test vector viral particles was harvested one to four days after transfection and was passed through a […] filter before being used to infect target host cells, or being stored at −80° C. HIV capsid protein (p24) levels in the harvested cell culture media were determined by an EIA method as described by the manufacturer (SAIC; Frederick, Md.). Before infection, target cells (293 and 293/T) were plated in cell culture media. Control infections were performed using cell culture media from mock transfections (no DNA) or transfections containing the resistance test vector plasmid DNA without the envelope expression plasmid. One to three or more days after infection, the media was removed and cell lysis buffer (Promega) was added to each well. Cell lysates were assayed for luciferase activity (FIG. 3). The inhibitory effect of the drug was determined using the following equation:
(§3) % luciferase inhibition=1−(RLUluc[drug]÷RLUluc)×100
(§4) where RLUluc [drug] is the Relative Light Unit of luciferase activity in infected cells in the presence of drug, and RLUluc is the Relative Light Unit of luciferase activity in infected cells in the absence of drug. IC50values were obtained from the sigmoidal curves that were generated from the data by plotting the percent inhibition of luciferase activity vs. the log10 drug concentration. The percent luciferase stimulation is the negative of the % inhibition calculated using the formula above.
A resistance test vector containing all of the mutations present in RTV-011073 except for the V241S and the T277K was constructed and tested using the phenotypic assay described earlier. The results were compared to those determined using the parent RTV-011073. We determined the pattern of phenotypic susceptibility to the NNRTIs, delavirdine, nevirapine and efavirenz, in the reverted vector RTV-011073/241V/277T. […] A resistance test vector containing all of the mutations present in RTV-011073 except for the V241S was constructed and tested using the phenotypic assay described earlier. The results were compared to those determined using the parent RTV-011073. […]

RTV-013522 = assay: Phenotypic susceptibility assay, RTV-013522; type: cell-based, HIV; details: patient 013522; for decrease in susceptibility: K103N, I135T, I270S
Description: as §1, §2, §3, §4
A resistance test vector was constructed as described in Example 1 from a virus sample obtained from patient 013522. The prior and current treatment regimens are unknown. Isolation of viral RNA and RT/PCR was used to generate a patient derived segment (PDS) that comprised viral sequences coding for all of PR and aa 1-313 of RT from all three samples. The PDS were inserted into an indicator gene viral vector to generate a resistance test vector designated RTV-013522. RTV-013522 was then tested in a phenotypic assay to determine accurately and quantitatively the level of susceptibility to a panel of anti-retroviral drugs. […]

RTV-I270S = assay: Phenotypic susceptibility assay, RTV-I270S; type: cell-based, HIV-1; details: site-directed I270S alone
Description: as §1, §2, §3, §4
A resistance test vector containing all of the mutations present in […] except for the I270S (RTV-013522/270I) was constructed and tested using the phenotypic assay described earlier. The results were compared to those determined using the parent RTV-013522. We determined the pattern of phenotypic susceptibility to the NNRTIs, delavirdine, nevirapine and efavirenz, in the reverted vector RTV-013522/270I. […] In this patient sample the correlation of drug-dependent stimulation of viral replication with the mutation at I270S is very striking. […]

RTV-V245E = assay: Phenotypic susceptibility assay, RTV-V245E; type: cell-based, HIV-1; details: site-directed V245E alone
Description: as §1, §2, §3, §4
(§5) A resistance test vector containing a single mutation, V245E, (RTV-V245E) was constructed and tested in the phenotypic assay described earlier. The results were compared to those determined using a genetically defined resistance test vector that was wild type at position 245. We determined the pattern of phenotypic susceptibility to the NNRTIs, delavirdine, nevirapine and efavirenz, in RTV-V245E.

RTV-K103N/I135T = assay: Phenotypic susceptibility assay, RTV-K103N/I135T; type: cell-based, HIV-1; details: site-directed K103N + I135T
Description: as §1, §2, §3, §4
as §5, with “two mutations, K103N and I135T (RTV-K103N/I135T)” for “a single mutation, V245E, (RTV-V245E)”, “103 and 135.” for “245.”, “RTV-K103N/I135T.” for “RTV-V245E.”

RTV-1033-3/227F = assay: Phenotypic susceptibility assay, RTV-1033-3/227F; type: cell-based, HIV; details: RTV-1033-3 with F227L reverted
Description: as §1, §2, §3, §4
A resistance test vector containing all of the mutations present in RTV-1033-3 except for F227L (RTV-1033-3/227F) was constructed and tested using the phenotypic assay described earlier. The results were compared to those determined using the parent RTV-1033-3. We determined the pattern of phenotypic susceptibility to the NNRTIs, delavirdine, nevirapine and efavirenz, in the reverted vector, RTV-1033-3/227F.

Row | Compound | reductions in susceptibility compared to wild type control RTV (RTV-011073/241V/277T) [fold] | drug-dependent stimulation of viral replication (RTV-V241S) | reductions in susceptibility compared to wild type control RTV (RTV-V241S) [fold] | drug-dependent stimulation of viral replication (RTV-013522) [%] | decrease in susceptibility (RTV-013522) [fold] | drug-dependent stimulation of viral replication (RTV-I270S) [%] | reductions in susceptibility compared to wild type control RTV (RTV-I270S) [fold] | drug-dependent stimulation of viral replication (RTV-V245E) | reductions in susceptibility compared to wild type control RTV (RTV-V245E) | drug-dependent stimulation of viral replication (RTV-K103N/I135T) | reductions in susceptibility compared to wild type control RTV (RTV-K103N/I135T) [fold] | drug-dependent stimulation of viral replication (RTV-1033-3/227F) [%] | reductions in susceptibility compared to wild type control RTV (RTV-1033-3/227F) [fold]
1 | CC(C)Nc1cccnc1N1CCN(C(=O)c2cc3cc(NS(C)(=O)=O)ccc3[nH]2)CC1 [delavirdine] | 50 | ~25% | 6 | ~110 | > 250 | ~60 | 13 | no drug-dependent stimulation | no reductions; also recorded: no significant reduction | no drug-dependent stimulation | 121 | ~100 | 72
2 | O=C1Nc2ccc(Cl)cc2[C@@](C#CC2CC2)(C(F)(F)F)O1 [efavirenz] | 54 | no drug-dependent stimulation | 3 | ~100 | > 450 | ~40 | 4 | no drug-dependent stimulation | no reductions; also recorded: no significant reduction | no drug-dependent stimulation | 80 | ~100 | 18
3 | Cc1ccnc2c1NC(=O)c1cccnc1N2C1CC1 [nevirapine] | 126 | ~30% | 9 | ~90 | > 600 | ~60 | 15 | no drug-dependent stimulation | no reductions; also recorded: no significant reduction | no drug-dependent stimulation | 171 | ~120 | > 600
